Results as given in ChEMBL document CHEMBL6071160, “Identification of a novel 10-hydroxyevodiamine prodrug as a potent topoisomerase inhibitor with improved aqueous solubility for treatment of hepatocellular carcinoma” (Eur J Med Chem, 2024).
pIC50: −log10 of the molar value. Activity calls are given as the source filed them. The rule behind the calls is not given here.

Legend:
Huh-7 [1] = experiment: Induction of apoptosis in human Huh-7 cells assessed as late apoptotic cells at 80 nM measured after 24 hrs by Annexin-V-FITC/PI analysis (reference value: 1.23%); format: functional
[2] = Toxicity in BALB/c nude mouse subcutaneously injected with human Huh-7 cells assessed as changes in liver tissue at 10 mg/kg, ip administered once daily measured after 14 days by H and E staining based assay; format: organism-based; conditions: in vivo, 336 h, time 14 day
[3] = Cmax in Sprague-Dawley rat at 10 mg/kg, ip measured upto 24 hrs by LC-MS/MS analysis; format: ADME, organism-based; conditions: in vivo
SK-HEP1 [4] = experiment: Antiproliferative activity against human SK-HEP1 cells assessed as inhibition of cell proliferation incubated for 72 hrs by MTT assay; format: functional, cell-based; conditions: SK-HEP1, 72 h
[5] = Toxicity in BALB/c nude mouse subcutaneously injected with human Huh-7 cells assessed as animal death at 40 mg/kg, ip administered once daily measured after 14 days; format: organism-based; conditions: in vivo, 336 h, time 14 day
Huh-7 [6] = experiment: Induction of apoptosis in human Huh-7 cells assessed as early apoptotic cells at 40 nM measured after 24 hrs by Annexin-V-FITC/PI analysis (reference value: 1.04%); format: functional
[7] = Toxicity in BALB/c nude mouse subcutaneously injected with human Huh-7 cells assessed as changes in kidney tissue at 10 mg/kg, ip administered once daily measured after 14 days by H and E staining based assay; format: organism-based; conditions: in vivo, 336 h, time 14 day
Huh-7 [8] = experiment: Induction of cell cycle arrest in human Huh-7 cells assessed as accumulation of cells at G2 phase 80 nM measured after 24 hrs by flow cytometric assay (reference value: 13.66%); format: functional
Huh-7 [9] = experiment: Induction of apoptosis in human Huh-7 cells assessed as loss of mitochondrial membrane potential by measuring JC-1 stained cells at 80 nM measured after 24 hrs by JC-1 staining based flow cytometry (reference value: 2.27%); format: functional
[10] = Tmax in Sprague-Dawley rat at 10 mg/kg, ip measured upto 24 hrs by LC-MS/MS analysis; format: ADME, organism-based; conditions: in vivo
Huh-7 [11] = experiment: Induction of apoptosis in human Huh-7 cells assessed as late apoptotic cells at 20 nM measured after 24 hrs by Annexin-V-FITC/PI analysis (reference value: 1.23%); format: functional
[12] = MRT (0 to t) in Sprague-Dawley rat at 10 mg/kg, ip measured upto 24 hrs by LC-MS/MS analysis; format: ADME, organism-based; conditions: in vivo
[13] = Toxicity in BALB/c nude mouse subcutaneously injected with human Huh-7 cells assessed as change in body weight at 10 to 20 mg/kg, ip administered once daily measured after 14 days; format: organism-based; conditions: in vivo, 336 h, dose 10-20 mg/kg, time 14 day
[14] = Toxicity in BALB/c nude mouse subcutaneously injected with human Huh-7 cells assessed as changes in lung tissue at 10 mg/kg, ip administered once daily measured after 14 days by H and E staining based assay; format: organism-based; conditions: in vivo, 336 h, time 14 day
Huh-7 [15] = experiment: Induction of cell cycle arrest in human Huh-7 cells assessed as accumulation of cells at S phase 80 nM measured after 24 hrs by flow cytometric assay (reference value: 23.33%); format: functional
SK-HEP1 [16] = experiment: Induction of apoptosis in human SK-HEP1 cells assessed as viable cells at 80 nM measured after 24 hrs by Annexin-V-FITC/PI analysis (reference value: 97.20%); format: functional; conditions: read-out: Activity
Huh-7 [17] = experiment: Induction of apoptosis in human Huh-7 cells assessed as viable cells at 20 nM measured after 24 hrs by Annexin-V-FITC/PI analysis (reference value: 97.46%); format: functional; conditions: read-out: Activity
[18] = Toxicity in BALB/c nude mouse subcutaneously injected with human Huh-7 cells assessed as change in platelet level at 10 mg/kg, ip administered once daily measured after 14 days; format: organism-based; conditions: in vivo, 336 h, time 14 day
[19] = AUC (0 to t) in Sprague-Dawley rat at 10 mg/kg, ip measured upto 24 hrs by LC-MS/MS analysis; format: ADME, organism-based; conditions: in vivo
[20] = molecular target: DNA topoisomerase II (Homo sapiens) (UniProt P11388+Q02880); experiment: Inhibition of DNA topoisomerase 2 (unknown origin) assessed as relaxation of supercoiled plasmid pBR322 DNA at 25 to 100 uM incubated for 15 mins measured after 30 mins addition of ethidium bromide by agarose gel electrophoresis; format: protein assay; conditions: dose 25-100 µM
Huh-7 [21] = experiment: Induction of cell cycle arrest in human Huh-7 cells assessed as accumulation of cells at G2 phase 40 nM measured after 24 hrs by flow cytometric assay (reference value: 13.66%); format: functional
Huh-7 [22] = experiment: Inhibition of cell invasion in human Huh-7 cells assessed as decrease in number of cells migration into lower compartment at 20 nM measured after 24 hrs by transwell assay; format: functional, cell-based
SK-HEP1 [23] = experiment: Induction of cell cycle arrest in human SK-HEP1 cells assessed as accumulation of cells at G2 phase 80 nM measured after 24 hrs by flow cytometric assay (reference value: 22.41%); format: functional
SK-HEP1 [24] = experiment: Inhibition of cell migration in human SK-HEP1 cells at 10 nM measured for 24 hrs by scratch wound healing assay; format: functional, cell-based
NCI-H1703 = experiment: Antiproliferative activity against human NCI-H1703 cells assessed as decrease in EdU positive cells measured after 24 hrs by Edu incorporation based fluorescence microscopic analysis; format: functional, cell-based; conditions: dose 10-40 nM
SK-HEP1 [25] = experiment: Induction of cell cycle arrest in human SK-HEP1 cells assessed as accumulation of cells at S phase 40 nM measured after 24 hrs by flow cytometric assay (reference value: 30.04%); format: functional
Huh-7 [26] = experiment: Inhibition of cell invasion in human Huh-7 cells assessed as decrease in number of cells migration into lower compartment at 40 nM measured after 24 hrs by transwell assay; format: functional, cell-based
[27] = Chemical stability of compound at pH 5.5 assessed as residual rate measured after 2 days; format: physicochemical; conditions: buffer, time 2 day, read-out: Stability
Huh-7 [28] = experiment: Induction of apoptosis in human Huh-7 cells assessed as necrotic cells at 80 nM measured after 24 hrs by Annexin-V-FITC/PI analysis (reference value: 0.27%); format: functional
SK-HEP1 [29] = experiment: Induction of cell cycle arrest in human SK-HEP1 cells assessed as accumulation of cells at G1 phase 40 nM measured after 24 hrs by flow cytometric assay (reference value: 47.55%); format: functional
Huh-7 [30] = experiment: Induction of apoptosis in human Huh-7 cells assessed as viable cells at 40 nM measured after 24 hrs by Annexin-V-FITC/PI analysis (reference value: 97.46%); format: functional; conditions: read-out: Activity
SK-HEP1 [31] = experiment: Induction of apoptosis in human SK-HEP1 cells assessed as late apoptotic cells at 20 nM measured after 24 hrs by Annexin-V-FITC/PI analysis (reference value: 0.64%); format: functional
Huh-7 [32] = experiment: Induction of cell cycle arrest in human Huh-7 cells assessed as accumulation of cells at G1 phase 80 nM measured after 24 hrs by flow cytometric assay (reference value: 63.01%); format: functional
Huh-7 [33] = experiment: Inhibition of cell migration in human Huh-7 cells at 40 nM measured for 24 hrs by scratch wound healing assay; format: functional, cell-based
Huh-7 [34] = experiment: Antiproliferative activity against human Huh-7 cells assessed as inhibition of cell proliferation incubated for 72 hrs by MTT assay; format: functional, cell-based; conditions: Huh-7, 72 h

## C[N+](C)(C)CCC(=O)Oc1ccc2[nH]c3c(c2c1)CCN1C(=O)c2cc(F)cc(F)c2N(c2cccc(F)c2)C31.[I-] (stereo not given)
Huh-7 [1]
  Activity: 11.64%
[2]
  Activity: Non-Toxic
[3]
  Cmax: 240 ng/mL
SK-HEP1 [4]
  pIC50: 7.52
[5]
  Activity: Toxic
Huh-7 [6]
  Activity: 2.84%
[7]
  Activity: Non-Toxic
Huh-7 [8]
  Activity: 86.5%
Huh-7 [9]
  Activity: 12.52%
[10]
  Tmax: 1.67 h
Huh-7 [11]
  Activity: 2.03%
[12]
  MRT last at 24 h: 4.64 h
[13]
  Activity: Non-Toxic
[14]
  Activity: Non-Toxic
Huh-7 [15]
  Activity: 6.71%
SK-HEP1 [16]
  viability at 0.08 µM: 64.7%
Huh-7 [17]
  viability at 0.02 µM: 96.6%
[18]
  Activity: Non-Toxic
[19]
  AUC(0-t) at 24 h: 1540 ng·h/mL
[20]
  inhibition: Active
Huh-7 [21]
  Activity: 11.72%
Huh-7 [22]
  inhibition: Active
SK-HEP1 [23]
  Activity: 68.55%
SK-HEP1 [24]
  inhibition: Active
NCI-H1703
  Activity: Dose-Dependent Effect
SK-HEP1 [25]
  Activity: 31.15%
Huh-7 [26]
  inhibition: Active
[27]
  remaining at 48 h: 55.8%
Huh-7 [28]
  Activity: 0.83%
SK-HEP1 [29]
  Activity: 43.86%
Huh-7 [30]
  viability at 0.04 µM: 94.2%
SK-HEP1 [31]
  Activity: 0.71%
Huh-7 [32]
  Activity: 6.79%
Huh-7 [33]
  inhibition: Active
Huh-7 [34]
  pIC50: 7.40
